Laboratory results taken from patent US20250326767A1, “NOVEL BENZOTHIAZOLE DERIVATIVES” (CARNA BIOSCIENCES, INC., priority 2021, published 2025).

What was measured:
Assay in all cases: Inhibition test on activity of DYRK family, mobility shift assay (MSA)
Type in all cases: biochemical
DYRK1A = molecular target: T1, DYRK1A (Homo sapiens, UniProt Q13627); conditions: ATP 100 μM; FITC-labeled DYRKtide peptide substrate; room temperature 1 hour; read-out: Inhibitory Activity DYRK1A (IC50 class)
T1 construct: purchased Carna Biosciences, Inc. 04-130
Description: (§1) The kinase activity was measured by mobility shift assay (MSA) method using QuickScout Screening Assist™ MSA (commercially available kit manufactured by Carna Biosciences, Inc.). The substrate of the kinase reaction used was an FITC-labeled DYRKtide peptide included in the kit. An assay buffer [20 mM HEPES, 0.01% Triton X-100™, 2 mM dithiothreitol, pH 7.5] was used to create a substrate mixture solution with a substrate (4 μM), MgCl2 (20 mM), and ATP (DYRK1A: 100 μM; DYRKIB: 200 μM; DYRK2:40 μM; and DYRK3:20 μM). In addition, kinases (DYRK1A: manufactured by Carna Biosciences, Inc., Cat. No. 04-130; DYRK1B: manufactured by Carna Biosciences, Inc., Cat. No. 04-131; DYRK2; manufactured by Carna Biosciences, Inc., Cat. No. 04-132; and DYRK3; manufactured by Carna Biosciences, Inc., Cat. No. 04-133) were diluted with the assay buffer to prepare enzyme solutions (DYRK1A: 0.2 ng/μL; DYRK1B: 0.08 ng/μL; DYRK2: 0.04 ng/μL; and DYRK3:0.25 ng/μL). The 10 mM solution of the test compound in DMSO was further diluted with DMSO to 10 levels of the concentration (0.00003 mM, 0.0001 mM, 0.0003 mM, 0.001 mM, 0.003 mM, 0.01 mM, 0.03 mM, 0.1 mM, 0.3 mM, and 1 mM), each of which was subjected to 25-fold dilution with the assay buffer to obtain a drug solution (4% DMSO solution). 5 μL of the drug solution or a control solution (4% DMSO-assay buffer), 5 μL of the substrate mixture solution, and 10 μL of the enzyme solution were mixed in the wells of a polypropylene 384-well plate and allowed to react at room temperature for 1 hour, and then the reaction was quenched by adding 60 μL of the termination buffer included in the kit. Subsequently, the quantities of the substrates(S) and the phosphorylated substrate (P) in the reaction solution were measured using LabChip EZ Reader II system (manufactured by Caliper Life Sciences) according to the protocol of the assay kit.
(§2) The heights of the peaks of the “substrate” and the “phosphorylated substrate” were expressed as S and P, respectively, and a blank containing the assay buffer instead of the enzyme solution was also measured.
(§3) The inhibition rate (%) of the test compound was calculated according to the following equation: […]
(§4) wherein, A, B, and C represent P/(P+S) of the blank well, P/(P+S) of the control solution well, and P/(P+S) of the compound-containing well, respectively.
(§5) The IC50 value was calculated via a regression analysis of the inhibition rate and the test compound concentration (logarithmic value).

DYRK1B = molecular target: T2, DYRK1B (Homo sapiens, UniProt Q9Y463); conditions: ATP 200 μM; FITC-labeled DYRKtide peptide substrate; room temperature 1 hour; read-out: Inhibitory Activity DYRK1B (IC50 class)
T2 construct: purchased Carna Biosciences, Inc. 04-131
T2 sequence (Q9Y463 whole entry): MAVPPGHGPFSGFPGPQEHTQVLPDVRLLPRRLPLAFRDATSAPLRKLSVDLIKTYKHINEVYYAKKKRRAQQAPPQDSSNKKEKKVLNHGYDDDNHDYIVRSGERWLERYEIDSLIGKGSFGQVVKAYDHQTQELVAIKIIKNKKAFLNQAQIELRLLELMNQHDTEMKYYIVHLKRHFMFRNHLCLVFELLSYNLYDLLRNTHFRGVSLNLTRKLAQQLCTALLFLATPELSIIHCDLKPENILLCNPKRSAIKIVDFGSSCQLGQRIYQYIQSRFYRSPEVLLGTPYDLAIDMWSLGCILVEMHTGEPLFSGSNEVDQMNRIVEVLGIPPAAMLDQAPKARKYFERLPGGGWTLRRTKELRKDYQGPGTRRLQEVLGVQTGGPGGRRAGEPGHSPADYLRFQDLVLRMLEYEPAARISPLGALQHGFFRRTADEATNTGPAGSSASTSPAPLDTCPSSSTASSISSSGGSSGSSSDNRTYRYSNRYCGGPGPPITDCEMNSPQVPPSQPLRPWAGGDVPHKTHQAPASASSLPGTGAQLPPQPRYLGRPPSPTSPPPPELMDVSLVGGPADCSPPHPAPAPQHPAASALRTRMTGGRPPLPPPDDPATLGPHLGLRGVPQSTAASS
Description: as §1, §2, §3, §4, §5

DYRK2 = molecular target: T3, DYRK2 (Homo sapiens, UniProt Q92630); conditions: ATP 40 μM; FITC-labeled DYRKtide peptide substrate; room temperature 1 hour; read-out: Inhibitory Activity DYRK2 (IC50 class)
T3 construct: purchased Carna Biosciences, Inc. 04-132
T3 sequence (Q92630 1-601): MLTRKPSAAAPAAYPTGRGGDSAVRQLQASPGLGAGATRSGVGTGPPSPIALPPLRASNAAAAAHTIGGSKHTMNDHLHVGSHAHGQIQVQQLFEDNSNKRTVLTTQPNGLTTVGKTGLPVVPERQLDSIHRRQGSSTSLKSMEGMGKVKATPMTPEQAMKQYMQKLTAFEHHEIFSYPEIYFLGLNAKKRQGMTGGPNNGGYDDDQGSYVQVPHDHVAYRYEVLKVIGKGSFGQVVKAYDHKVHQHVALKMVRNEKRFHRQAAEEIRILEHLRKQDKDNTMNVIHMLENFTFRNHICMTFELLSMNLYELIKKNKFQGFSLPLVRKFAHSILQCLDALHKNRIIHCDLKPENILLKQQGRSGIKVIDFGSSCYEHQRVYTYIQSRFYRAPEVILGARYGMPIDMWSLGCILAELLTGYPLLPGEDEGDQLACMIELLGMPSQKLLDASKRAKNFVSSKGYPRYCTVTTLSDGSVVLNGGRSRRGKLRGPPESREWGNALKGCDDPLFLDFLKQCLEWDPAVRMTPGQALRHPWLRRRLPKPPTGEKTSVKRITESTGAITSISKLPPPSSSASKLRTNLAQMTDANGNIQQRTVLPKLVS
Description: as §1, §2, §3, §4, §5

DYRK3 = molecular target: T4, DYRK3 (Homo sapiens, UniProt O43781); conditions: ATP 20 μM; FITC-labeled DYRKtide peptide substrate; room temperature 1 hour; read-out: Inhibitory Activity DYRK3 (IC50 class)
T4 construct: purchased Carna Biosciences, Inc. 04-133
T4 sequence (O43781 1-588): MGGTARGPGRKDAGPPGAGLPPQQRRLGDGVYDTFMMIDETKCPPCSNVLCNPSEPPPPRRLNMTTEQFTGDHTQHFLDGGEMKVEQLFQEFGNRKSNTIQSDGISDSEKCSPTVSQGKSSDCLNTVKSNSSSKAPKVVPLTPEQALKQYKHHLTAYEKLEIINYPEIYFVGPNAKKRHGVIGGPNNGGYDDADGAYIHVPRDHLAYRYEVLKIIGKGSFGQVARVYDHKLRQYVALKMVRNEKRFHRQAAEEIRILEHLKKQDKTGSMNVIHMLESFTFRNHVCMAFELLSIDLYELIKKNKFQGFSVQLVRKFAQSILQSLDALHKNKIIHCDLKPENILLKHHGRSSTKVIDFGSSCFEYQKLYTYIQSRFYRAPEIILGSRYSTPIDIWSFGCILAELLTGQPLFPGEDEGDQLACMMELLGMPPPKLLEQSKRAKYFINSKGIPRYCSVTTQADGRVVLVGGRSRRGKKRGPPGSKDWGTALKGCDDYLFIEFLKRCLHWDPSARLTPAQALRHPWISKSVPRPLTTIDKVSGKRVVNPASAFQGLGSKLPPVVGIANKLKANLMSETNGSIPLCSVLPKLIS
Description: as §1, §2, §3, §4, §5

| IC50 (DYRK1A) | IC50 (DYRK1B) | IC50 (DYRK2) | IC50 (DYRK3) | Structure (SMILES) |
| --- | --- | --- | --- | --- |
| < 0.01 µM | < 0.01 µM | 0.1 to 1 µM | 0.1 to 1 µM | CC#CC1CCNC(=O)N1c1nc2c3c(ccc2s1)OCCO3 (single isomer, unassigned) [Example 5, 1-(7,8-dihydro-[1,4]dioxyno[2′,3′:5,6]benzo[1,2-d]thiazol-2-yl)-6-(prop-1-yn-1-yl)tetrahydropyrimidin-2(1H)-one] |
|  | < 0.01 µM | 0.1 to 1 µM | 0.1 to 1 µM | CC#CC1N(c2nc3c4c(ccc3s2)OCCO4)C(=O)NC12CC2 (single isomer, unassigned) [Example 7, 6-(7,8-dihydro-[1,4]dioxyno[2′,3′:5,6]benzo[1,2-d]thiazol-2-yl)-7-(prop-1-yn-1-yl)-4,6-diazaspiro[2.4]heptan-5-one] |
| > 1 µM |  | > 1 µM | > 1 µM | CC#CC1N(c2nc3c4c(ccc3s2)OCC4)C(=O)NC12CC2 (single isomer, unassigned) [Example 19, 6-(7,8-dihydrobenzofuro[4,5-d]thiazol-2-yl)-7-(prop-1-yn-1-yl)-4,6-diazaspiro[2.4]heptan-5-one] |
| < 0.01 µM |  | > 1 µM | 0.1 to 1 µM | CC#CC1N(c2nc3c4c(ccc3s2)OCC4)C(=O)NC12CCC2 (single isomer, unassigned) [Example 20, 7-(7,8-dihydrobenzofuro[4,5-d]thiazol-2-yl)-8-(prop-1-yn-1-yl)-5,7-diazaspiro[3.4]octan-6-one] |
| 0.1 to 1 µM |  | > 1 µM | > 1 µM | CC#CC1N(c2nc3c4c(ccc3s2)OCC4)C(=O)NC12CCC2 (single isomer, unassigned) [Example 21, 7-(7,8-dihydrobenzofuro[4,5-d]thiazol-2-yl)-8-(prop-1-yn-1-yl)-5,7-diazaspiro[3.4]octan-6-one] |
|  | 0.1 to 1 µM | > 1 µM | > 1 µM | CC#C[C@H]1[C@@H](C)CNC(=O)N1c1nc2c3c(ccc2s1)OCC3 (stereo in doubt) [Example 12, (5S*,6R*)-1-(7,8-dihydrobenzofuro[4,5-d]thiazol-2-yl)-5-methyl-6-(prop-1-yn-1-yl)tetrahydropyrimidin-2(1H)-one] |
|  | > 1 µM | > 1 µM | > 1 µM | CC#C[C@H]1[C@H](C)CNC(=O)N1c1nc2c3c(ccc2s1)OCC3 (stereo in doubt) [Example 13, (5R*,6R*)-1-(7,8-dihydrobenzofuro[4,5-d]thiazol-2-yl)-5-methyl-6-(prop-1-yn-1-yl)tetrahydropyrimidin-2(1H)-one] |
| > 1 µM | > 1 µM | > 1 µM | > 1 µM | CC#CC1C[C@H](C)NC(=O)N1c1nc2c3c(ccc2s1)OCC3 (stereo in doubt) [Example 16, (4S,6S)-1-(7,8-dihydrobenzofuro[4,5-d]thiazol-2-yl)-4-methyl-6-(prop-1-yn-1-yl)tetrahydropyrimidin-2(1H)-one] |
| 0.01 to 0.1 µM | 0.01 to 0.1 µM | > 1 µM | > 1 µM | CC#CC1C[C@H](C)NC(=O)N1c1nc2c3c(ccc2s1)OCC3 (stereo in doubt) [Example 17, (4S,6R)-1-(7,8-dihydrobenzofuro[4,5-d]thiazol-2-yl)-4-methyl-6-(prop-1-yn-1-yl)tetrahydropyrimidin-2(1H)-one] |
| > 1 µM | > 1 µM | > 1 µM | > 1 µM | CC#C[C@H]1C[C@@H](C)NC(=O)N1c1nc2c3c(ccc2s1)OCC3 [Example 14, (4R,6R)-1-(7,8-dihydrobenzofuro[4,5-d]thiazol-2-yl)-4-methyl-6-(prop-1-yn-1-yl)tetrahydropyrimidin-2(1H)-one] |
| 0.01 to 0.1 µM | 0.01 to 0.1 µM | > 1 µM | > 1 µM | CC#C[C@@H]1C[C@@H](C)NC(=O)N1c1nc2c3c(ccc2s1)OCC3 [Example 15, (4R,6S)-1-(7,8-dihydrobenzofuro[4,5-d]thiazol-2-yl)-4-methyl-6-(prop-1-yn-1-yl)tetrahydropyrimidin-2(1H)-one] |
